Values joined by “and” are separate entries in the source; they are usually repeats but may differ in a detail not shown here. Identical values can stand only once.
Conditions: for Critical pressure / Critical temperature: pulse heating method

COC(=O)CC(=O)OC [dimethyl 1,3-propanedioate]
Liquid, Transpiration method
Conditions | vapor or sublimation pressure [kPa]
278.2 K | 0.0117
281.2 K | 0.01507
284.3 K | 0.01969
287.2 K | 0.02593
290.8 K | 0.03523
293.2 K | 0.04253
296.1 K | 0.0533
298 K | 0.06386
299.4 K | 0.06974
302.2 K | 0.08729
303.3 K | 0.09423
305.3 K | 0.1063
308.4 K | 0.1313
311.2 K | 0.165
314.3 K | 0.2046

Liquid
Conditions | Critical pressure [kPa] | Critical temperature [K]
– | 3530 | 649

COC(=O)CCC(=O)OC [dimethyl 1,4-butanedioate]
Liquid, Transpiration method
Conditions | vapor or sublimation pressure [kPa]
286.4 K | 0.01062
289.4 K | 0.01389
292.3 K | 0.01793
295.2 K | 0.02339
298.1 K | 0.0292
301.1 K | 0.03798
304.2 K | 0.04988
307.2 K | 0.06242
310.2 K | 0.07685
313.2 K | 0.09759
316.2 K | 0.1187
319.2 K | 0.1462
322.3 K | 0.1846
325.3 K | 0.2206
328.3 K | 0.2686
331.4 K | 0.3232
334.5 K | 0.395
337.5 K | 0.4891
340.6 K | 0.6151

Liquid
Conditions | Critical pressure [kPa] | Critical temperature [K]
– | 3060 | 662

COC(=O)CCCCC(=O)OC [dimethyl 1,6-hexanedioate]
Liquid
Conditions | vapor or sublimation pressure
294.2 K | 0.00284 kPa
297.1 K | 0.00356 kPa
297.4 K | 0.00377 kPa
298.1 K | 0.00391 kPa
300.6 K | 0.00505 kPa
303.1 K | 0.00619 kPa
303.3 K | 0.00649 kPa
305.4 K | 0.00775 kPa
308.1 K | 0.00948 kPa and 0.00946 kPa
311.6 K | 0.01308 kPa
313.2 K | 0.01501 kPa
314.4 K | 0.01648 kPa
317.2 K | 0.02059 kPa
318.2 K | 0.02254 kPa
318.5 K | 0.02198 kPa
320.2 K | 0.02543 kPa
323.3 K | 0.03244 kPa
323.4 K | 0.03434 kPa
326.2 K | 0.03996 kPa
328.3 K | 0.05027 kPa
332.2 K | 0.06088 kPa
333.2 K | 0.07135 kPa
334.3 K | 0.07203 kPa
337.4 K | 0.08819 kPa
338.5 K | 0.1013 kPa and 0.1038 kPa
340.2 K | 0.1114 kPa
343.5 K | 0.1393 kPa and 0.1369 kPa
348.5 K | 0.1893 kPa
348.6 K | 0.2004 kPa
351.7 K | 0.2406 kPa
353.6 K | 0.2604 kPa
358.6 K | 0.3551 kPa and 0.3732 kPa
361.7 K | 0.446 kPa
363.7 K | 0.4731 kPa
368.7 K | 0.6312 kPa and 0.676 kPa
369.7 K | 0.6863 kPa
373.8 K | 0.8347 kPa and 0.8876 kPa

Liquid
Conditions | Critical pressure [kPa] | Critical temperature [K]
– | 2500 | 692

COC(=O)CCCCCC(=O)OC [dimethyl 1,7-heptanedioate]
Liquid, Transpiration method
Conditions | vapor or sublimation pressure [kPa]
291.3 K | 0.0013
293.3 K | 0.00161
298.3 K | 0.00264
303.2 K | 0.00423
308.2 K | 0.00693
313.2 K | 0.01073
318.2 K | 0.01734
323.2 K | 0.02558
328.2 K | 0.03778
333.1 K | 0.0547
338.2 K | 0.0784
343.2 K | 0.1123
348.1 K | 0.1618
353.1 K | 0.2251

Liquid
Conditions | Critical pressure [kPa] | Critical temperature [K]
– | 2370 | 711

COC(=O)C(=O)OC [dimethyl ethanedioate]
Transpiration method
Conditions | vapor or sublimation pressure [kPa]
293.3 K, Crystal | 0.04995
296.3 K, Crystal | 0.06801
298.2 K, Crystal | 0.07959
301.2 K, Crystal | 0.1046
303.2 K, Crystal | 0.1298
306.2 K, Crystal | 0.178
308.2 K, Crystal | 0.2104
311.2 K, Crystal | 0.2873
313.2 K, Crystal | 0.3372
316.2 K, Crystal | 0.4466
318.3 K, Crystal | 0.5545
319.2 K, Crystal | 0.6006
321.2 K, Crystal | 0.7191
325.3 K, Crystal | 0.9657
330.4 K, Liquid | 1.399
333.2 K, Liquid | 1.612
335.2 K, Liquid | 1.819
337.2 K, Liquid | 2.022
340.3 K, Liquid | 2.395
343.2 K, Liquid | 2.841
345.3 K, Liquid | 3.144
346.2 K, Liquid | 3.25
349.2 K, Liquid | 3.905
350.4 K, Liquid | 4.141
352.2 K, Liquid | 4.479
355.5 K, Liquid | 5.325
357.2 K, Liquid | 5.707
359.2 K, Liquid | 6.28
360.6 K, Liquid | 6.526
362.2 K, Liquid | 7.181
365.2 K, Liquid | 8.422

Liquid
Conditions | Critical pressure [kPa] | Critical temperature [K]
– | 4060 | 639

COC(=O)CCCCCCCC(=O)OC [dimethyl nonanedioate]
Liquid
Conditions | vapor or sublimation pressure
298.1 K | 0.00019 kPa
303.1 K | 0.00028 kPa
308.1 K | 0.00054 kPa
313.2 K | 0.0008 kPa and 0.00084 kPa
318.2 K | 0.00138 kPa and 0.00131 kPa
320.2 K | 0.00167 kPa and 0.00164 kPa
323.3 K | 0.00226 kPa
323.4 K | 0.00228 kPa
325.3 K | 0.00278 kPa
328.3 K | 0.00335 kPa and 0.00362 kPa
330.8 K | 0.00466 kPa
333.4 K | 0.00549 kPa and 0.00561 kPa
335.9 K | 0.00711 kPa
338.4 K | 0.00771 kPa and 0.00858 kPa
341 K | 0.01011 kPa
343.4 K | 0.01171 kPa
343.8 K | 0.01311 kPa
348.5 K | 0.01757 kPa
348.6 K | 0.0185 kPa
351.1 K | 0.02169 kPa
353.6 K | 0.02548 kPa and 0.02436 kPa and 0.02518 kPa
358.6 K | 0.03663 kPa
358.7 K | 0.03635 kPa
360.2 K | 0.04123 kPa
363.7 K | 0.05391 kPa and 0.05451 kPa
366.2 K | 0.0656 kPa
368.9 K | 0.07601 kPa and 0.08031 kPa
371.3 K | 0.08918 kPa and 0.08695 kPa
373.8 K | 0.1016 kPa and 0.1065 kPa

COC(=O)CCCCCCC(=O)OC [dimethyl octanedioate]
Liquid, Transpiration method
Conditions | vapor or sublimation pressure [kPa]
293.3 K | 0.00062
295.3 K | 0.00077
298.3 K | 0.00105
303.2 K | 0.00169
308.3 K | 0.00273
313.2 K | 0.00451
318.1 K | 0.00698
323.1 K | 0.01107
328.1 K | 0.01684
333.1 K | 0.02524
338.1 K | 0.03923
343 K | 0.05566
348.1 K | 0.08123
352.1 K | 0.1083

Liquid
Conditions | Critical pressure [kPa] | Critical temperature [K]
– | 2300 | 723

COC(=O)CCCC(=O)OC [dimethyl pentanedioate]
Liquid
Conditions | vapor or sublimation pressure
283.7 K | 0.00275 kPa
286.3 K | 0.00357 kPa
288.4 K | 0.0043 kPa
290.5 K | 0.00564 kPa
293.2 K | 0.00758 kPa
293.3 K | 0.00747 kPa
295.6 K | 0.00958 kPa
296.2 K | 0.00984 kPa
298.2 K | 0.01214 kPa
298.4 K | 0.01204 kPa
300.3 K | 0.01479 kPa
303.2 K | 0.01881 kPa
303.3 K | 0.0193 kPa
305.4 K | 0.02301 kPa
306.2 K | 0.02388 kPa
308.2 K | 0.02904 kPa
309.2 K | 0.03102 kPa
310.2 K | 0.03348 kPa
312.1 K | 0.03995 kPa
313.2 K | 0.04146 kPa
313.5 K | 0.04323 kPa
315.2 K | 0.05031 kPa
315.5 K | 0.05126 kPa
316.2 K | 0.05285 kPa
318.1 K | 0.06049 kPa
318.3 K | 0.06276 kPa
319.2 K | 0.0664 kPa
320.2 K | 0.07343 kPa
320.3 K | 0.06968 kPa
321.4 K | 0.07692 kPa
323.2 K | 0.09072 kPa
323.3 K | 0.08542 kPa and 0.09398 kPa
325.2 K | 0.1033 kPa and 0.1021 kPa
327.1 K | 0.1263 kPa
328.3 K | 0.1276 kPa
329.2 K | 0.148 kPa
330.2 K | 0.1428 kPa
331.3 K | 0.1646 kPa
333.1 K | 0.1752 kPa
333.2 K | 0.1798 kPa
335.3 K | 0.1977 kPa and 0.2051 kPa
338.3 K | 0.2474 kPa and 0.2598 kPa
340.2 K | 0.2719 kPa
341.3 K | 0.3017 kPa
343.1 K | 0.3382 kPa
343.2 K | 0.3425 kPa
345.2 K | 0.3651 kPa
348.1 K | 0.4368 kPa

Liquid
Conditions | Critical pressure [kPa] | Critical temperature [K]
– | 2770 | 682

COC(=O)CCCCCCCCC(=O)OC [dimethyl sebacate]
Liquid
Conditions | vapor or sublimation pressure [kPa]
304.1 K | 0.00014
308.1 K | 0.0002
313.2 K | 0.00036
318.2 K | 0.00059
323.4 K | 0.00101
328.3 K | 0.00162
333.4 K | 0.0025
338.4 K | 0.00388
343.5 K | 0.00594
348.2 K | 0.00839
353.6 K | 0.01405
355.6 K | 0.01486
358.6 K | 0.01849
363.7 K | 0.02808
368.8 K | 0.03965
373.8 K | 0.05473

Liquid
Conditions | Critical pressure [kPa] | Critical temperature [K]
– | 2080 | 742

From the NIST ThermoML archive (doi:10.1021/je0602418)
